What all share (assay): greenhouse pre-emergence herbicidal test
Common to all, as to assay type: in vivo

Assay [1] has as its system Echinocloa crus-galli. The source says:
(§1) The seeds of the test plants were sown separately for each species. For the pre-emergence treatment, the active ingredients, which had been suspended or emulsified in water, were applied directly after sowing by means of finely distributing nozzles. The containers were irrigated gently to promote germination and growth and subsequently covered with transparent plastic hoods until the plants had rooted. This cover caused uniform germination of the test plants, unless this had been impaired by the active ingredients. […] The test period extended over 2 to 4 weeks. During this time, the plants were tended, and their response to the individual treatments was evaluated. Evaluation was carried out using a scale from 0 to 100. 100 means no emergence of the plants, or complete destruction of at least the aerial moieties, and 0 means no damage, or normal course of growth. A moderate herbicidal activity is given at values of at least 60, a good herbicidal activity is given at values of at least 70, and a very good herbicidal activity is given at values of at least 85. The plants used in the greenhouse experiments were of the following species: [table]

Assay [2] relates to Setaria faberi.
Source text: as §1

Assay [3] relates to Amaranthus retroflexus.
Source text: as §1

Each structure is given as a SMILES string. Where “and” joins values, the source holds several entries; their conditions need not be identical. Equal values may be shown once.

As for `COc1c(Br)cc(Cl)c(C)c1Nc1nc(N)nc(C(C)F)n1` (racemic) [Example 96], the herbicidal activity in assay [1] (62 g/ha) is 70%; in assay [2] (62 g/ha), 75%.

`C#CCOc1c(Br)cc(F)c(C)c1Nc1nc(N)nc(C(C)(C)F)n1` [Example 22]: the herbicidal activity in assay [3] (62 g/ha) stood at 100%; in assay [3] (62.5 g/ha) it was 85%; in assay [1] (62 g/ha), 100%; in assay [1] (62.5 g/ha) it was 85%; in assay [2] (62 g/ha) it was 100%; in assay [2] (62.5 g/ha), 100%.

In the case of `CCOc1c(Br)cc(F)c(C)c1Nc1nc(N)nc(C(C)(C)F)n1` [Example 23], the herbicidal activity in assay [3] (62 g/ha), in assay [3] (62.5 g/ha), in assay [1] (62 g/ha), in assay [1] (62.5 g/ha), in assay [2] (62 g/ha) and in assay [2] (62.5 g/ha) was 100% throughout.

Turning to `CC#CCOc1c(F)cc(F)c(Cl)c1Nc1nc(N)nc(C(C)(C)F)n1` [Example 25], the herbicidal activity in assay [3] (62 g/ha), in assay [3] (250 g/ha), in assay [1] (62 g/ha), in assay [1] (250 g/ha), in assay [2] (62 g/ha) and in assay [2] (250 g/ha) was 100% throughout.

Take `CCC#CCOc1c(F)cc(F)c(Cl)c1Nc1nc(N)nc(C(C)(C)F)n1` [Example 26]: the herbicidal activity in assay [3] (62 g/ha), in assay [3] (250 g/ha), in assay [1] (62 g/ha), in assay [1] (250 g/ha), in assay [2] (62 g/ha) and in assay [2] (250 g/ha) was 100% throughout.

With `CC(C)(F)c1nc(N)nc(Nc2c(Cl)c(F)cc(F)c2OCC#CC2CC2)n1` [Example 27], the herbicidal activity in assay [3] (31 g/ha), in assay [3] (62 g/ha), in assay [1] (62 g/ha), in assay [2] (31 g/ha) and in assay [2] (62 g/ha) was 100% each time.

With `C#CCOc1c(F)cc(F)c(Cl)c1Nc1nc(N)nc(C(C)(C)F)n1` [Example 28], the herbicidal activity in assay [3] (62 g/ha), in assay [3] (62.5 g/ha), in assay [1] (62 g/ha), in assay [1] (62.5 g/ha), in assay [2] (62 g/ha) and in assay [2] (62.5 g/ha) was 100% each time.

Consider `COc1c(Br)cc(F)c(Cl)c1Nc1nc(N)nc(C2(F)CC2)n1` [Example 42], for which the herbicidal activity in assay [3] (31 g/ha), in assay [1] (31 g/ha) and in assay [2] (31 g/ha) was 100% in each case.

With `COc1c(Cl)ccc(Cl)c1Nc1nc(N)nc(C(C)(F)F)n1` [Example 72], the herbicidal activity in assay [3] (62 g/ha) is 100%; in assay [1] (62 g/ha), 100%; in assay [2] (62 g/ha), 80% and 100%.

`COc1c(Cl)cc(F)c(C)c1Nc1nc(N)nc(C2(F)CCCC2)n1` [Example 73]: the herbicidal activity in assay [3] (62 g/ha), in assay [1] (62 g/ha) and in assay [2] (62 g/ha) was 100% each time.

Regarding `COc1c(Br)cc(F)c(C)c1Nc1nc(N)nc(C(C)F)n1` (stereo not shown) [Example 74], the herbicidal activity in assay [3] (62 g/ha), in assay [1] (62 g/ha) and in assay [2] (62 g/ha) was 100% in each case.

Turning to `COc1c(Br)cc(F)c(C)c1Nc1nc(N)nc(C(C)(F)CCl)n1` (stereo not shown) [Example 75], the herbicidal activity in assay [3] (62 g/ha), in assay [1] (62 g/ha) and in assay [2] (62 g/ha) was 100% throughout.

With `COc1c(Br)cc(F)c(C)c1Nc1nc(N)nc(C(C)(F)CBr)n1` (stereo not shown) [Example 76], the herbicidal activity in assay [3] (62 g/ha), in assay [1] (62 g/ha) and in assay [2] (62 g/ha) was 100% in each case.

For the molecule `COc1c(Br)cc(F)c(C)c1Nc1nc(N)nc(C(C)(F)F)n1` [Example 77], the herbicidal activity in assay [3] (62 g/ha), in assay [1] (62 g/ha) and in assay [2] (62 g/ha) was 100% each time.

As for `COc1c(Br)cc(F)c(C)c1Nc1nc(N)nc(C2(F)CCCC2)n1` [Example 78], the herbicidal activity in assay [3] (62 g/ha), in assay [1] (62 g/ha) and in assay [2] (62 g/ha) was 100% throughout.

For the molecule `COc1c(Br)cc(F)c(C)c1Nc1nc(N)nc(C(C)(C)F)n1` [Example 80], the herbicidal activity in assay [3] (62 g/ha), in assay [1] (62 g/ha) and in assay [2] (62 g/ha) was 100% throughout.

Turning to `CC#CCOc1c(Br)cc(C)c(Cl)c1Nc1nc(N)nc(C(C)(C)F)n1` [Example 82], the herbicidal activity in assay [3] (62 g/ha), in assay [1] (62 g/ha) and in assay [2] (62 g/ha) was 100% throughout.

Take `COc1c(Br)cc(C)c(Cl)c1Nc1nc(N)nc(C(C)(C)F)n1` [Example 83]: the herbicidal activity in assay [3] (62 g/ha), in assay [1] (62 g/ha) and in assay [2] (62 g/ha) was 100% in each case.

`COc1c(F)ccc(Cl)c1Nc1nc(N)nc(C(C)(F)CBr)n1` (stereo not shown) [Example 86]: the herbicidal activity in assay [3] (62 g/ha), in assay [1] (62 g/ha) and in assay [2] (62 g/ha) was 100% throughout.

For `COc1c(F)ccc(Cl)c1Nc1nc(N)nc(C(C)(C)OC)n1` [Example 87], the herbicidal activity in assay [3] (62 g/ha), in assay [1] (62 g/ha) and in assay [2] (62 g/ha) was 100% each time.

Take `CC#CCOc1c(F)ccc(Cl)c1Nc1nc(N)nc(C(C)(F)F)n1` [Example 88]: the herbicidal activity in assay [3] (62 g/ha), in assay [1] (62 g/ha) and in assay [2] (62 g/ha) was 100% throughout.

For the molecule `CC#CCOc1c(F)ccc(Cl)c1Nc1nc(N)nc(C(F)C(C)C)n1` (stereo not shown) [Example 89], the herbicidal activity in assay [3] (62 g/ha), in assay [1] (62 g/ha) and in assay [2] (62 g/ha) was 100% in each case.

Take `CC#CCOc1c(F)ccc(Cl)c1Nc1nc(N)nc(C(C)(C)OC)n1` [Example 90]: the herbicidal activity in assay [3] (62 g/ha), in assay [1] (62 g/ha) and in assay [2] (62 g/ha) was 100% each time.

As for `CC#CCOc1c(F)ccc(Cl)c1Nc1nc(N)nc(C(C)(F)CBr)n1` (stereo not shown) [Example 91], the herbicidal activity in assay [3] (62 g/ha), in assay [1] (62 g/ha) and in assay [2] (62 g/ha) was 100% throughout.

For the molecule `Nc1nc(Nc2c(Cl)cccc2OC(F)F)nc(C2(F)CCCC2)n1` [Example 94], the herbicidal activity in assay [3] (62 g/ha), in assay [1] (62 g/ha) and in assay [2] (62 g/ha) was 100% throughout.

The record behind these values is US20240150303A1, “DIAMINOTRIAZINE COMPOUNDS” (BASF SE, priority 2021, published 2024).
